Reference: US7608750B2, “Nonhuman model animal unresponsive to immunopotentiating synthetic compound” (Japan Science and Technology Agency, priority 2001, dated 2009)

Experiments:
[1] = tested on: peritoneal macrophages from MyD88 knockout mice; assay: Cytokine production by peritoneal macrophages (ELISA), MyD88 knockout; assay type: cell-based, mouse; conditions: 5×10^4 cells, presence or absence of 30 U/ml IFN-γ
Method: 2 ml of 4% thioglycollic acid medium (DIFCO) were injected into the intraperitoneals of the wild-type mice, TLR7 knockout mice (TLR7KO), MyD88 knockout mice (MyD88KO) and TLR9 knockout mice (TLR9KO), respectively, three days later, peritoneal exudate cells were isolated from intraperitoneal of each mouse, these cells were cultured in PRMI 1640 medium (GIBCO) added with 10% fatal bovine serum (GIBCO) at 37° C. for two hours, nonadherent cells were […] by washing with Hank's buffered salt solution (HBBS; GIBCO) at iced temperature, and the adherent cells were used as peritoneal macrophages in following experiment. Total RNA (10 μg) obtained from macrophages derived from the wild-type mice (+/Y) and TLR7 knockout mouse (TLR7KO) was electrophoresed, transferred onto a nylon membrane, and hybridized with a part of TLR7 DNA, and this membrane was rehybridized with β-actin probe. It was examined by the Northern blotting. From the results shown in FIG. 3, the expression of TLR7mRNA could not be found in TLR7 knockout mice.
In addition, the measurement of cytokine generated from peritoneal macrophages was executed as follows; […] peritoneal macrophages of 2×10^5 well or 5×10^4 well were cultured in 96-well plate respectively, and after stimulated with the above-mentioned reagents for 24 h, concentration of TNF-α, IL-12p40, IL-6 and/or IFN-α were measured by ELISA according to the manual.
Before examining the reactivity of TLR7 knockout mice to imiquimod and R-848 which are imidazoquinoline group compound, firstly imiquimod or R-848 were administered to BALB/c mice (wild-type) orally at the predetermined concentration, respectively, the concentration of IFN-α, TNF-α and IL-12 in serum were measured after two hours. […] The data is shown as a mean value+/−S.D. (N=3). Similarly, the ability of these compounds to activate immune cells via TLR was examined using imiquimod or R-848 respectively. The peritoneal macrophages (5×10^4 cells) from wild-type mice and MyD88 knockout mice prepared in example 2, were stimulated by imiquimod or R-848, in the presence or absence of 30 U/ml of IFN-γ, and the concentration of TNF-α and IL-12 produced by peritoneal macrophages were measured by ELISA. […] The data is shown as a mean value+/−S.D. (N=3).

[2] = tested on: splenic cells derived from TLR7 knockout mice (TLR7KO); assay: Splenic cell proliferation ([3H] thymidine incorporation), TLR7 knockout; assay type: cell-based, mouse; conditions: 5×10^4 cells, cultured 48 h
Method: As activated phenotypes were proliferated and expressed by stimulating B-lymphocytes with imidazoquinoline group compounds, the proliferation of splenic cells was examined (Cell. Immunol. 203, 55-62, 2000; J. Immunol. 165, 5552-5557, 2000). Splenic cells (5×10^4 cells) derived from TLR7 knockout mice (TLR7KO) and wild-type mice were stimulated with R-848 and CpGDNA at a predetermined concentration, cultured for 48 h (cultured by adding [^3H] thymidine for last eight hours), and measured the level of thymidine incorporation using a β scintillation counter. A mean value+/−S.D., obtained from representative experiment among triplicate experiments is shown.

[3] = tested on: BMDC derived from TLR7 knockout mice (TLR7KO); assay: Surface CD40, CD80, CD86 expression on bone marrow dendritic cells (flow cytometry), TLR7 knockout; assay type: cell-based, mouse; conditions: stimulated 24 h
Method: The reactivity to R-848 in dendritic cells derived from bone marrow (BMDC) derived from TLR7 knockout mice (TLR7KO) and the wild-type mice was examined. The bone marrow cells obtained from TLR7 knockout mice and wild-type mice were cultured for six days in RPMI-1640 medium supplemented with 10% fatal bovine serum and 10 ng/ml of GM-CSF (mouse granulocyte/macrophage colony stimulating factor). The obtained mouse undifferentiated dendritic cells were stimulated with R-848 or CpGDNA for 24 h, the cells were stained with biotinylated antibody to CD40, CD80 and CD86, and phycoerythrin (PE)-associated streptavidin was detected, which was analyzed by automated-cell analysing system (FACSCalibur). The results of examination of the expression of the molecules of CD40, CD80 and CD86 onto the surface of cells by flow cytometry are shown in FIG. 11. Similar to the case with CpGDNA, when BMDC derived from wild-type mice was stimulated with R-848, upregulation of CD40, CD80 and CD86 expression was induced. On the contrary, when BMDC derived from TLR7 knockout mice (TLR7KO) was stimulated with R-848, the expression of these molecules on cell surface was not enhanced.

[4] = tested on: macrophages derived from wild-type mice; assay: Intracellular signalling (NF-κB EMSA, JNK and IRAK in vitro kinase assay) in macrophages, wild-type; assay type: cell-based, mouse; conditions: 100 nM R-848 or 1.0 μM CpGDNA 1668
Method: Next, the activation of intracellular signaling cascade to an antiviral immune-modulator was examined. Peritoneal macrophages (2×10^6 cells) from TLR7 knockout mice (TLR7KO) and wild-type mice respectively stimulated with thioglycollic acid, were stimulated with 100 nM of R-848 or 1.0 μM of CpGDNA 1668 (CpG) for a certain period of time, nucleoprotein was extracted, the extract obtained with the specific probe including NF-κB associated-site was incubated, electrophoresed, visualized by autoradiography, and NF-κB activation was examined as DNA-associated protein by electrophoretic mobility shift assay (EMSA). In FIG. 12, an arrow indicates induced NF-κB complexes, and an arrow head indicates a free probe.
The functional role of TLR7 in transactivation of NF-κB reporter gene induced by R-848 was examined. HEK293 cells were transiently cotransfected with TLR7 expression plasmids derived from human, and luciferase activity was measured before and after R-848 stimulation. The peritoneal macrophages derived from TLR7 knockout mice (TLR7KO) and wild-type mice stimulated with thioglycollic acid were stimulated with 100 nm of R-848 or 1.0 μM of phosphothioate modified CpGDNA 1668 (CpG), all cell lysate were prepared, immunoprecipated with anti-JNK antibody, and JNK activity was examined by In Vitro Kinase Assay using GST-c-Jun fusion protein as a substrate. The same lysate was blotted with anti-JNK antibody. Moreover, the lysate was immunoprecipated with anti-IRAK, and kinase activity of IRAK was examined by In Vitro Kinase Assay. The same lysate was blotted with anti-IRAK antibody. […] It is important to activate TLR7-MyD88-dependent signal pathway for the effect of imidazoquinoline in vivo.

[5] = tested on: wild-type mice; assay: Serum cytokines after intraperitoneal R-848, wild-type mice; assay type: in vivo, mouse; conditions: 50 nmol intraperitoneally, ELISA
Method: It was examined in vivo whether TLR7 was involved in a response to R-848. The wild-type mice, MyD88 knockout mice or TLR7 knockout mice were injected intraperitoneally with 50 nmol of R-848, the sera were harvested after a predetermined period of time, and the concentration of IFN-α, TNF-α and IL12p40 in sera was determined by ELISA. […] On the contrary, the increment of these cytokines was not observed in TLR7 knockout mice.

[6] = tested on: genital herpes; conditions: actual treatment; cited from earlier work

CCOCc1nc2c(N)nc3ccccc3c2n1CC(C)(C)O [R-848, resiquimod]
IL-12 produced by peritoneal macrophages [1]: hardly produced any cytokines
TNF-α produced by peritoneal macrophages [1]: hardly produced any cytokines
proliferation of splenic cells ([3H] thymidine incorporation) [2]: did not show proliferation
CD40 expression on cell surface [3]: not enhanced
CD80 expression on cell surface [3]: not enhanced
CD86 expression on cell surface [3]: not enhanced
activation of c-Jun N terminal kinase (JNK) [4]: induced
enhanced DNA avidity of NF-κB transcription (EMSA) [4]: induced
phosphorylation of IRAK [4]: induced
concentration of IFN-α in sera [5]: increased significantly
concentration of IL12p40 in sera [5]: increased significantly
concentration of TNF-α in sera [5]: increased significantly
treating genital herpes [6]: effective
